Reference: patent US20230174636A1, “COMPOSITIONS AND METHODS FOR TREATING CANCER” (RUSH UNIVERSITY MEDICAL CENTER, priority 2020, published 2023)
Where no end group is shown, it is not given here. [ ]: non-standard residue; d: D form.

Tests used:
[1] = test system: Hep3B (human liver cancer cells); assay: MTT assay (cell viability), Hep3B; assay type: cell-based; details: 48 h, serum-free, combined with mAb a3-3a
Method: (§1) MTT assay: Mitochondrial activity was measured with the 3-(4, 5-dimethylthiazol-2-yl)-2, 5-diphenyltetrazolium bromide (MTT) assay (Sigma) as described before. The cells were grown on 24-well culture plates with 500 μl of medium and treated with various reagents according to the experimental design. At the end of the treatment period, 300 μl of culture medium were removed from each well, and 20 μl of MTT solution (5 mg/ml) were added and incubated for 1 h.

[2] = test system: TNBC tumor; assay: Tumor size in PDX mouse model of TNBC; assay type: in vivo, mice; details: for tumor shrinkage in mAb a3-3a-treated TNBC mice / shrinkage of TNBC tumor in mAb a3-3a-treated mice: peptide 0.1 mg/kg daily intranasal plus a3-3a 2 mg/kg weekly i.p.; for tumor shrinkage in mAb a3-3a-treated TNBC mice: three weeks; for p40 mAb a3-3a-mediated reduction of TNBC tumor: peptide 0.1 mg/kg daily intranasal plus p40 mAb 2 mg/kg weekly, 2 weeks, infrared imaging; for shrinkage of TNBC tumor in mAb a3-3a-treated mice: 3 weeks
From the text: Animals: Animal maintaining and experiments were in accordance with National Institute of Health guidelines and were approved by the Institutional Animal Care and Use committee of the Rush University of Medical Center, Chicago, Ill. Patient-derived xenograft (PDX) model (ID # TM00096) was purchased from Jackson Laboratory, Bar Harbor, Me., USA. In this model, TNBC tumor fragments at passage P1-P9 (invasive ductal carcinoma; TNBC ER^−PR^−HER2^−) were engrafted in the flank of female 6-8 week old NOD scid gamma (NSG) mice. Mice were shipped to us by Jackson Laboratory within ˜2 weeks following tumor engraftment. PDX mice were maintained in our temperature-controlled animal vivarium with adequate food and water.
Tumor measurement: Tumor growth was measured with a caliper and tumor cross-sectional area was determined with the formula (mm^2=longest diameter X shortest diameter). Treatment with p40 mAb started when the tumor sizes reached 0.6-0.8 cm^2 in area. The p40 mAb a3-3a was injected once a week intraperitoneally in 0.1 ml volume of sterile PBS-1% normal mouse serum. The tumors were then measured to determine progression or regression. Infrared dye (Alexa 800-conjugated 2DG dye; Licor) was injected via tail-vein on the day before imaging analysis. Mice were sacrificed at the end of the study and tumor tissues were collected for different biochemical analyses.

[3] = test system: BT-549 cells; assay: MTT assay (cell viability), BT-549; assay type: cell-based, human; details: BT-549, 48 h, serum-free, combined with mAb a3-3a
Method: as §1

[4] = test system: IFNγ, IL-10; assay: Serum IFNγ and IL-10 by sandwich ELISA in PDX mice; assay type: in vivo; details: peptide 0.1 mg/kg daily intranasal plus p40 mAb, 2 weeks
Method: (§2) Sandwich ELISA: Sandwich ELISA was used to quantify p402 and p40 as described by us. Briefly, for p402, mAb a3-1d (1.3 mg/mL) was diluted 1:3000 and added to each well (100 μL/well) of a 96-well ELISA plate for coating. The biotinylated p402 mAb d7-12c (2 mg/mL) was diluted 1:3000 and used as detection antibody. Similarly for p40, mAb a3-3a (1.3 mg/mL) and biotinylated p40 mAb a3-7g (2 mg/mL) were also diluted 1:3000 and used as coating and detection antibodies, respectively. Concentrations of IFN-γ, IL-12, IL-23, and IL-10 were measured in serum or tissue homogenates by ELISA (eBioscience/ThermoFisher), according to the manufacturer's instructions as described before.

[5] = test system: splenocytes; assay: FACS of T cells in splenocytes of PDX mice; assay type: in vivo; details: intranasal peptide plus p40 mAb, 3 weeks
Method: Isolation of splenocytes: Spleens isolated from treated or untreated PDX mice were placed into a cell strainer and mashed with a syringe plunger. Resulting single-cell suspensions were treated with RBC lysis buffer (Sigma-Aldrich), washed, and cultured in RPMI 1640 supplemented with 10% FBS, 50 μM 2-ME, 2 mM L-glutamine, 100 U/ml penicillin, and 100 μg/ml streptomycin.
Flow cytometry: Single-cell suspensions isolated from mouse spleen or tumor were stained with Zombie Aqua™ Fixable Viability Kit (Biolegend) according to the manufacturer's instructions. Cells were washed with FACS buffer (ThermoFisher) and stained with FITC-anti-human CD4 antibody and APC/Cy7-anti-human CD8 antibody (Biolegend) for extracellular stains. For IFNγ staining, cells were stained with PE-anti-human IFNγ antibody (Biolegend) and detected by flow cytometry analysis. Only PE-treated and unstained cells served as control. Flow cytometric analyses were performed using the LSRFortessa analyzer (BD Biosciences) and analyzed using the FlowJo Software (v10) as described.

[6] = test system: TNBC tumor; assay: H&E staining of tumor sections of PDX mice; assay type: in vivo; details: peptide 0.1 mg/kg daily intranasal plus p40 mAb 2 mg/kg weekly, 2 weeks
[7] = test system: MCF-7 cells; assay: MTT assay (cell viability), MCF-7; assay type: cell-based, human; details: MCF-7, 48 h, serum-free, combined with mAb a3-3a
Method: as §1

[8] = test system: human IFNγ, human IL-10; assay: IFNγ and IL-10 in tumor tissue extracts by sandwich ELISA; assay type: in vivo, mice; details: peptide 0.1 mg/kg daily intranasal plus p40 mAb, 2 weeks
Method: FIG. 23A-23B. Intranasal wtTIDM peptide stimulates the p40 mAb-mediated induction of IFNγ while reducing the level of IL-10 in TNBC tumor tissues of patient-derived xenograft (PDX) mice. Female 6-8 week old NOD scid gamma (NSG) mice were engrafted TNBC tumor fragments at passage P1-P9 (invasive ductal carcinoma; TNBC ER^−/−/PR^−/−/HER2^−/−) in the flank. After about 4 weeks of engraftment, when tumors of PDX mice were 0.6-0.8 cm^2 in size, mice were treated with p40 mAb and hamster IgG at a dose of 2 mg/kg body wt once a week. Mice were also treated with wild type (wt) and mutated (m) TLR2-interacting domain of MyD88 (TIDM) peptide at a dose of 0.1 mg/kg body wt daily via intranasal route. After 2 weeks of treatment, levels of human IFNγ (23A) and human IL-10 (23B) were measured in tumor tissue extracts by sandwich ELISA (Thermofisher). Results are mean±SEM of 6-7 mice per group. ***p<0.001.
as §2

Row | Substance | death by combination of mAb a3-3a and TIDM peptide (MTT) [1] | tumor shrinkage in mAb a3-3a-treated TNBC mice [2] | p40 mAb a3-3a-mediated reduction of TNBC tumor [2] | death by combination of mAb a3-3a and TIDM peptide (MTT) [3] | p40 mAb a3-3a-mediated induction of IFNγ in serum [4] | p40 mAb a3-3a-mediated reduction of IL-10 in serum [4] | Tc1 (CD8+IFNγ+) response in p40 mAb-treated TNBC mice [5] | death of TNBC tumor in p40 mAb a3-3a-treated mice (H&E) [6] | death by combination of mAb a3-3a and TIDM peptide (MTT) [7] | p40 mAb a3-3a-mediated induction of IFNγ in tumor tissues [8] | p40 mAb a3-3a-mediated reduction of IL-10 in tumor tissues [8] | death induced by p40 mAb a3-3a in presence of NBD peptide (MTT) [1] | shrinkage of TNBC tumor in mAb a3-3a-treated mice [2] | death induced by p40 mAb a3-3a in presence of NBD peptide (MTT) [3] | death induced by p40 mAb a3-3a in presence of NBD peptide (MTT) [7]
1 | TLR2-interacting domain of MyD88 (TIDM) peptide (DRQIKIWFQNRRMKWKKPGAHQK; not fully specified (some residues)) [wtTIDM] | markedly induced death | greater tumor shrinkage | significantly stimulated | markedly induced death | stimulated | potentiated | markedly stimulated | stimulated the death | markedly induced death | stimulated | potentiated |  |  |  | 
2 | mNBD: Mutated (m) NBD control peptide, drqikiwfqnrrmkwkkLDASAL (SEQ ID NO: 9) ([dD][dR][dQ][dI][dK][dI][dW][dF][dQ][dN][dR][dR][dM][dK][dW][dK][dK]LDASAL) [reference compound] |  |  |  |  |  |  |  |  |  |  |  | not seen | did not exhibit such effect | not seen | not seen
3 | mTIDM: Mutated (m) TIDM control peptide, drqikiwfqnrmikwkkPGWHGD (SEQ ID NO.: 5) ([dD][dR][dQ][dI][dK][dI][dW][dF][dQ][dN][dR][dM][dI][dK][dW][dK][dK]PGWHGD) [reference compound] | not | not | remained unable to stimulate | not | not | not |  | not | not | not | not |  |  |  | 
4 | NEMO-binding domain (NBD) peptide [wtNBD] |  |  |  |  |  |  | markedly stimulated |  |  |  |  | greater death | greater shrinkage | greater death | greater death
